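Following 48 hours of exposure in 96-well plates, responses at five concentrations were used to interpolate endpoints linearly. TGI: total growth inhibition.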
What was measured:
Assay in all cases: NCI anticancer screen, dose series, 48 h
786-0 renal = system: 786-0 renal
A498 renal = system: A498 renal
A549 NSCLC = system: A549 NSCLC
ACHN renal = system: ACHN renal
CAKI-1 renal = system: CAKI-1 renal
CCRF-CEM leukemia = system: CCRF-CEM leukemia
COLO 205 colon = system: COLO 205 colon
DMS 114 small cell lung = system: DMS 114 small cell lung
DMS 273 small cell lung = system: DMS 273 small cell lung
EKVX NSCLC = system: EKVX NSCLC
HCC-2998 colon = system: HCC-2998 colon
HCT-116 colon = system: HCT-116 colon
HCT-15 colon = system: HCT-15 colon
HL-60(TB) leukemia = system: HL-60(TB) leukemia
HOP-62 NSCLC = system: HOP-62 NSCLC
HOP-92 NSCLC = system: HOP-92 NSCLC
HT29 colon = system: HT29 colon
IGROV1 ovarian = system: IGROV1 ovarian
K-562 leukemia = system: K-562 leukemia
KM12 colon = system: KM12 colon
KM20L2 colon = system: KM20L2 colon
LXFL 529 NSCLC = system: LXFL 529 NSCLC
M14 melanoma = system: M14 melanoma
M19-MEL melanoma = system: M19-MEL melanoma
MALME-3M melanoma = system: MALME-3M melanoma
MOLT-4 leukemia = system: MOLT-4 leukemia
NCI-H226 lung = system: NCI-H226 lung
NCI-H23 lung = system: NCI-H23 lung
NCI-H460 lung = system: NCI-H460 lung
NCI-H522 lung = system: NCI-H522 lung
OVCAR-3 ovarian = system: OVCAR-3 ovarian
OVCAR-4 ovarian = system: OVCAR-4 ovarian
OVCAR-5 ovarian = system: OVCAR-5 ovarian
OVCAR-8 ovarian = system: OVCAR-8 ovarian
RPMI-8226 leukemia = system: RPMI-8226 leukemia
RXF 393 renal = system: RXF 393 renal
RXF-631 renal = system: RXF-631 renal
SF-268 CNS = system: SF-268 CNS
SF-295 CNS = system: SF-295 CNS
SF-539 CNS = system: SF-539 CNS
SK-MEL-2 melanoma = system: SK-MEL-2 melanoma
SK-MEL-28 melanoma = system: SK-MEL-28 melanoma
SK-MEL-5 melanoma = system: SK-MEL-5 melanoma
SK-OV-3 ovarian = system: SK-OV-3 ovarian
SN12C renal = system: SN12C renal
SNB-19 CNS = system: SNB-19 CNS
SNB-75 CNS = system: SNB-75 CNS
SNB-78 CNS = system: SNB-78 CNS
SW-620 colon = system: SW-620 colon
TK-10 renal = system: TK-10 renal
U251 CNS = system: U251 CNS
UACC-257 melanoma = system: UACC-257 melanoma
UACC-62 melanoma = system: UACC-62 melanoma
XF 498 CNS = system: XF 498 CNS
DLD-1 colon = system: DLD-1 colon
LOX IMVI melanoma = system: LOX IMVI melanoma
UO-31 renal = system: UO-31 renal

## COC(=O)C1=C(C(=O)OC)C2(CCCCCC2=O)OC1=O (stereo not drawn)
786-0 renal
  TGI: > 100 µM
A498 renal
  TGI: > 100 µM
A549 NSCLC
  TGI: > 100 µM
ACHN renal
  TGI: > 100 µM
CAKI-1 renal
  TGI: > 100 µM
CCRF-CEM leukemia
  TGI: > 100 µM
COLO 205 colon
  TGI: > 100 µM
DMS 114 small cell lung
  TGI: > 100 µM
DMS 273 small cell lung
  TGI: > 100 µM
EKVX NSCLC
  TGI: > 100 µM
HCC-2998 colon
  TGI: > 100 µM
HCT-116 colon
  TGI: > 100 µM
HCT-15 colon
  TGI: > 100 µM
HL-60(TB) leukemia
  TGI: > 100 µM
HOP-62 NSCLC
  TGI: > 100 µM
HOP-92 NSCLC
  TGI: > 100 µM
HT29 colon
  TGI: > 100 µM
IGROV1 ovarian
  TGI: > 100 µM
K-562 leukemia
  TGI: > 100 µM
KM12 colon
  TGI: > 100 µM
KM20L2 colon
  TGI: > 100 µM
LXFL 529 NSCLC
  TGI: > 100 µM
M14 melanoma
  TGI: > 100 µM
M19-MEL melanoma
  TGI: > 100 µM
MALME-3M melanoma
  TGI: > 100 µM
MOLT-4 leukemia
  TGI: > 100 µM
NCI-H226 lung
  TGI: > 100 µM
NCI-H23 lung
  TGI: > 100 µM
NCI-H460 lung
  TGI: > 100 µM
NCI-H522 lung
  TGI: > 100 µM
OVCAR-3 ovarian
  TGI: > 100 µM
OVCAR-4 ovarian
  TGI: > 100 µM
OVCAR-5 ovarian
  TGI: > 100 µM
OVCAR-8 ovarian
  TGI: > 100 µM
RPMI-8226 leukemia
  TGI: > 100 µM
RXF 393 renal
  TGI: > 100 µM
RXF-631 renal
  TGI: > 100 µM
SF-268 CNS
  TGI: > 100 µM
SF-295 CNS
  TGI: > 100 µM
SF-539 CNS
  TGI: > 100 µM
SK-MEL-2 melanoma
  TGI: > 100 µM
SK-MEL-28 melanoma
  TGI: > 100 µM
SK-MEL-5 melanoma
  TGI: > 100 µM
SK-OV-3 ovarian
  TGI: > 100 µM
SN12C renal
  TGI: > 100 µM
SNB-19 CNS
  TGI: > 100 µM
SNB-75 CNS
  TGI: > 100 µM
SNB-78 CNS
  TGI: > 100 µM
SW-620 colon
  TGI: > 100 µM
TK-10 renal
  TGI: > 100 µM
U251 CNS
  TGI: > 100 µM
UACC-257 melanoma
  TGI: > 100 µM
UACC-62 melanoma
  TGI: > 100 µM
XF 498 CNS
  TGI: > 100 µM

## COc1ccc(OC)c2[nH]c(Sc3c([N+](=O)[O-])ncn3C)nc12
786-0 renal
  TGI: > 100 µM
A498 renal
  TGI: 97.3 µM
A549 NSCLC
  TGI: > 100 µM
ACHN renal
  TGI: > 100 µM
CAKI-1 renal
  TGI: 42.6 µM
COLO 205 colon
  TGI: 26.6 µM
DLD-1 colon
  TGI: 48.8 µM
DMS 114 small cell lung
  TGI: 35.1 µM
DMS 273 small cell lung
  TGI: 41.3 µM
EKVX NSCLC
  TGI: 51.2 µM
HCC-2998 colon
  TGI: 38.4 µM
HCT-116 colon
  TGI: 51.6 µM
HCT-15 colon
  TGI: 38.8 µM
HOP-62 NSCLC
  TGI: > 100 µM
HOP-92 NSCLC
  TGI: 44.4 µM
HT29 colon
  TGI: > 100 µM
IGROV1 ovarian
  TGI: 85.7 µM
KM12 colon
  TGI: > 100 µM
KM20L2 colon
  TGI: 60.6 µM
LOX IMVI melanoma
  TGI: > 100 µM
LXFL 529 NSCLC
  TGI: 27.3 µM
M14 melanoma
  TGI: 88.3 µM
M19-MEL melanoma
  TGI: 50.2 µM
MALME-3M melanoma
  TGI: 29.3 µM
NCI-H226 lung
  TGI: 47.4 µM
NCI-H23 lung
  TGI: 51.9 µM
NCI-H460 lung
  TGI: > 100 µM
OVCAR-3 ovarian
  TGI: 45.6 µM
OVCAR-4 ovarian
  TGI: 64.7 µM
OVCAR-5 ovarian
  TGI: > 100 µM
OVCAR-8 ovarian
  TGI: 50.1 µM
RXF 393 renal
  TGI: 60.1 µM
RXF-631 renal
  TGI: 35.9 µM
SF-268 CNS
  TGI: 68.6 µM
SF-295 CNS
  TGI: > 100 µM
SF-539 CNS
  TGI: 34.2 µM
SK-MEL-28 melanoma
  TGI: 54.6 µM
SK-MEL-5 melanoma
  TGI: 35.4 µM
SK-OV-3 ovarian
  TGI: > 100 µM
SN12C renal
  TGI: 37.8 µM
SNB-75 CNS
  TGI: > 100 µM
SNB-78 CNS
  TGI: > 100 µM
SW-620 colon
  TGI: > 100 µM
TK-10 renal
  TGI: 61.6 µM
U251 CNS
  TGI: > 100 µM
UACC-257 melanoma
  TGI: 30.1 µM
UACC-62 melanoma
  TGI: 34.1 µM
UO-31 renal
  TGI: 93.5 µM
XF 498 CNS
  TGI: 43.5 µM

From PubChem BioAssay (NCI)
